Experiments:
Assay type in all cases: biochemical
[1] = target: T1, aggregated beta-amyloid; human Aβ 1-42 (UniProtKB-P05067, a.a. 672-713) (Homo sapiens, UniProt P05067); assay: Beta-amyloid aggregate degradation test (thioflavin T assay); conditions: pre-aggregated Aβ, further 3 days at 37° C., ThT fluorescence vs control = 100%
T1 construct: UniProtKB-P05067, a.a; 672-713
Protocol: Aβ (beta-amyloid; human A3 1-42 monomer (UniProtKB-P05067, a.a. 672-713)) was dissolved at a concentration of 10 mM in dimethyl sulfoxide (DMSO), and the resulting solution was diluted to 250 μM using distilled water, and then incubated at 37° C. for 3 days to induce aggregation. The aggregated beta-amyloid was added with each test compound in an amount of 50 or 500 μM such that the final concentration reached 25 μM, and was further cultured at 37° C. for 3 days to induce reaction. The aggregate degradation effect of each test compound was measured by thioflavin T (ThT) assay (see Example 2). Specifically, 25 μL of the reaction solution was charged in each well of a 96-well plate for fluorescence analysis and 75 μL of the prepared thioflavin-T solution was charged in each well. The reaction was allowed to proceed at room temperature in a dark laboratory for 5 minutes and then fluorescence values were measured at an excitation wavelength of 450 nm and an emission wavelength of 485 nm using a multi-mode microplate reader. The ratio of the fluorescence value measured in the group obtained by treating with each test compound to 100% of the fluorescence value of the group (control group) obtained by treating only with beta-amyloids and inducing aggregation for 3 days is set forth in Table 4 below: […]

[2] = target: T2, Tau protein (wild-type K18) (Homo sapiens, UniProt P10636); assay: Tau protein aggregation inhibition test (thioflavin T assay); conditions: heparin/DTT-induced aggregation, 37° C. 5 days, ThT fluorescence vs tau-only control = 100%
T2 construct: Tau protein (wild-type K18)
T2 sequence (P10636 561-685 limits assumed): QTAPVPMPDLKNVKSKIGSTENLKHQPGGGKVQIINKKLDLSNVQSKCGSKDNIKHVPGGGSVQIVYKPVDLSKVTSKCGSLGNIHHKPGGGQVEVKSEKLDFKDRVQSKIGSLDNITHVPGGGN
Protocol: (§1) Tau protein (wild-type K18) was dissolved in phosphate-buffered saline (PBS, pH 7.4) at a concentration of 1 mg/mL to prepare a tau protein solution. In order to induce aggregation of tau proteins, 0.1 mg/mL of heparin and 100 μM dithiothreitol (DTT) were added to 1 mg/mL of the tau protein solution, followed by incubation at 37° C. for 5 days. At this time, the result was mixed with each test compound (50, 500 μM) such that the final concentration reached 0.5 mg/mL, followed by further incubation.
The inhibitory effect of each compound against tau aggregation was measured based on the intensity of fluorescence by thioflavin T (ThT) assay (see Example 2). More specifically, 25 μL of the reaction solution was charged in each well of a 96-well plate for fluorescence analysis, and 75 μL of the prepared thioflavin-T solution was then charged in each well. The reaction was allowed to proceed at room temperature in a dark laboratory for 5 minutes, and then fluorescence values were measured at an excitation wavelength of 450 nm and an emission wavelength of 485 nm using a multi-mode microplate reader.
The ratio of the fluorescence value measured in the group obtained by treating with each test compound to 100% of the fluorescence value of the group (control group) obtained by treating only with tau proteins and inducing aggregation for 5 days is set forth in Table 5 below: […]

[3] = target: T3, aggregated tau protein (wild-type K18) (Homo sapiens, UniProt P10636); assay: Tau protein aggregate degradation test (thioflavin T assay); conditions: pre-aggregated tau, further 5 days at 37° C., ThT fluorescence vs control = 100%
T3 construct: Tau protein (wild-type K18)
T3 sequence (P10636 561-685 limits assumed): as above
Protocol: as §1, with “solution.” for “solution. In order to induce aggregation of tau proteins,”, “days to induce tau protein aggregation. The aggregated tau protein” for “days. At this time, the result”, “in an amount of 50 or” for “(50,”, “μM” for “μM)”, “incubation at 37° C. for 5 days to induce reaction.” for “incubation.”
The degradation effect of each compound on the tau aggregates was measured by thioflavin T (ThT) assay (see Example 2). More specifically, 25 μL of the reaction solution was charged in each well of a 96-well plate for fluorescence analysis and 75 μL of the prepared thioflavin-T solution was charged in each well. The reaction was allowed to proceed at room temperature in a dark laboratory for 5 minutes and then fluorescence values were measured at an excitation wavelength of 450 nm and an emission wavelength of 485 nm using a multi-mode microplate reader.
The ratio of the fluorescence value measured in the group obtained by treating with each test compound to 100% of the fluorescence value of the group (control group) obtained by treating only with tau proteins and inducing aggregation for 5 days is set forth in Table 6 below: […]

T1 sequence (P05067 672-713): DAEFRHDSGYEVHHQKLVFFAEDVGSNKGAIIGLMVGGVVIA

Row | Beta-amyloid aggregate degradation activity (% of control) ([1]; 500 uM test compound) | Tau aggregation remaining (ThT fluorescence, % of tau-only control) ([2]; 50 uM test compound) | Tau aggregation remaining (ThT fluorescence, % of tau-only control) ([2]; 500 uM test compound) | Beta-amyloid aggregate degradation activity (% of control) ([1]; 50 uM test compound) | ThT fluorescence remaining (% of control) ([3]; 50 uM test compound) | ThT fluorescence remaining (% of control) ([3]; 500 uM test compound) | SMILES
1 | 94.23 % of control | 56.04 % of control | 82.71 % of control |  |  |  | O=C1NC(=O)/C(=C/c2c[nH]c3ncccc23)S1 [DN204286, (Z)-5-((1H-pyrrolo[2,3-b]pyridin-3-yl)methylene)thiazolidine-2,4-dione]
2 | 54.07 % of control | 60.71 % of control | 46.16 % of control | 83.66 % of control | 57.57 % of control | 52.83 % of control | O=C1NC(=O)/C(=C/c2c[nH]c3cccnc23)S1 [DN204289, (Z)-5-((1H-pyrrolo[3,2-b]pyridin-3-yl)methylene)thiazolidine-2,4-dione]
3 | 74.80 % of control | 85.91 % of control |  | 88.64 % of control |  |  | O=C1NC(=O)C(Cc2cnc3ccccc3c2)S1 (stereo not shown) [DN204294, 5-(quinolin-3-ylmethyl)thiazolidine-2,4-dione]
4 | 17.28 % of control | 13.243 % of control | 4.984 % of control | 68.90 % of control | 30.26 % of control | 16.48 % of control | O=C1NC(=S)S/C1=C\c1c[nH]c2ccccc12 [DN204296, (Z)-5-((1H-indol-3-yl)methylene)-2-thioxothiazolidin-4-one]
5 | 28.19 % of control | 48.721 % of control | 16.233 % of control | 86.80 % of control | 52.16 % of control | 17.97 % of control | O=C1NC(=S)S/C1=C\c1cc[nH]c1 [DN204297, (Z)-5-((1H-pyrrol-3-yl)methylene)-2-thioxothiazolidin-4-one]
6 | 7.79 % of control | 71.163 % of control | 33.817 % of control | 59.37 % of control | 61.36 % of control | 29.73 % of control | O=C1NC(=S)S/C1=C\c1ccoc1 [DN204298, (Z)-5-(furan-3-ylmethylene)-2-thioxothiazolidin-4-one]
7 | 80.07 % of control | 60.521 % of control | 33.932 % of control |  | 72.21 % of control | 45.09 % of control | O=C1NC(=S)S/C1=C\c1ccsc1 [DN204299, (Z)-5-(thiophen-3-ylmethylene)-2-thioxothiazolidin-4-one]
8 | 33.65 % of control | 82.4 % of control | 29.14 % of control | 90.66 % of control | 81.77 % of control | 39.19 % of control | O=C1NC(=S)SC1Cc1cc[nH]c1 (stereo not shown) [DN204303, 5-((1H-pyrrol-3-yl)methyl)-2-thioxothiazolidin-4-one]
9 | 73.11 % of control | 70.66 % of control | 39.54 % of control | 97.47 % of control | 67.53 % of control | 50.23 % of control | O=C1NC(=S)SC1Cc1c[nH]c2ncccc12 (stereo not shown) [DN204304, 5-((1H-pyrrolo[2,3-b]pyridin-3-yl)methyl)-2-thioxothiazolidin-4-one]
10 | 30.52 % of control |  | 55.87 % of control | 86.89 % of control |  |  | CN1C(=O)N/C(=C\c2c[nH]c3cccnc23)C1=O [DN204673, (Z)-5-((1H-pyrrolo[3,2-b]pyridin-3-yl)methylene)-3-methylimidazolidine-2,4-dione]
11 | 53.56 % of control | 93.56 % of control | 74.24 % of control |  |  |  | O=C1NC(=S)S/C1=C\c1c[nH]c2ccncc12 [DN204807, (Z)-5-((1H-pyrrolo[3,2-c]pyridin-3-yl)methylene)-2-thioxothiazolidin-4-one]
12 | 73.30 % of control | 27.48 % of control | 16.09 % of control |  | 62.2 % of control | 41.11 % of control | O=C1NC(=S)S/C1=C\c1c[nH]c2cccnc12 [DN204808, (Z)-5-((1H-pyrrolo[3,2-b]pyridin-3-yl)methylene)-2-thioxothiazolidin-4-one]
13 | 25.32 % of control | 36.72 % of control | 32.09 % of control | 95.14 % of control | 51.93 % of control | 30.87 % of control | O=C1NC(=S)S/C1=C\c1ccc2occc2c1 [DN204809, (Z)-5-(benzofuran-5-ylmethylene)-2-thioxothiazolidin-4-one]
14 | 28.97 % of control | 43.22 % of control | 40.21 % of control | 74.64 % of control | 50.44 % of control | 31.04 % of control | CCN1C(=O)/C(=C/c2c[nH]c3ccccc23)NC1=S [DN204811, (Z)-5-((1H-indol-3-yl)methylene)-3-ethyl-2-thioxoimidazolidin-4-one]

From US20230129364A1, “PYRROLIDINE DERIVATIVE, AND PHARMACEUTICAL COMPOSITION FOR PREVENTING OR TREATING BETA-AMYLOID OR TAU PROTEIN-ASSOCIATED DISEASES CONTAINING SAME” (YONSEI UNIVERSITY, UNIVERSITY - INDUSTRY FOUNDATION (UIF), priority 2019, published 2023)
